Here are results for 2 molecules from patent EP4722213A1, “NITROGEN-CONTAINING FUNCTIONAL GROUP-SUBSTITUTED PYRIDAZINOPYRIDONE DERIVATIVE AND USE THEREOF” (Sichuan Huiyu Pharmaceutical Co., Ltd., priority 2023, dated 2024).

For one experiment, the target named is T1, CYP3A4 (Homo sapiens, UniProt P08684).
T1 construct: human liver microsomes were used as the CYP450 enzyme source; from tissue; host or cells: human liver microsomes
The experiment can be described thus: Inhibition of hepatic drug-metabolizing enzymes in human liver microsomes (substrates midazolam and testosterone). Format: in vitro ADME. A general note: Liver microsomes are vesicles of endoplasmic reticulum, rich in cytochrome P450 enzymes.

The target in the next experiment is T2, SOS1 (Homo sapiens, UniProt Q07889).
T2 sequence (Q07889 1-1333): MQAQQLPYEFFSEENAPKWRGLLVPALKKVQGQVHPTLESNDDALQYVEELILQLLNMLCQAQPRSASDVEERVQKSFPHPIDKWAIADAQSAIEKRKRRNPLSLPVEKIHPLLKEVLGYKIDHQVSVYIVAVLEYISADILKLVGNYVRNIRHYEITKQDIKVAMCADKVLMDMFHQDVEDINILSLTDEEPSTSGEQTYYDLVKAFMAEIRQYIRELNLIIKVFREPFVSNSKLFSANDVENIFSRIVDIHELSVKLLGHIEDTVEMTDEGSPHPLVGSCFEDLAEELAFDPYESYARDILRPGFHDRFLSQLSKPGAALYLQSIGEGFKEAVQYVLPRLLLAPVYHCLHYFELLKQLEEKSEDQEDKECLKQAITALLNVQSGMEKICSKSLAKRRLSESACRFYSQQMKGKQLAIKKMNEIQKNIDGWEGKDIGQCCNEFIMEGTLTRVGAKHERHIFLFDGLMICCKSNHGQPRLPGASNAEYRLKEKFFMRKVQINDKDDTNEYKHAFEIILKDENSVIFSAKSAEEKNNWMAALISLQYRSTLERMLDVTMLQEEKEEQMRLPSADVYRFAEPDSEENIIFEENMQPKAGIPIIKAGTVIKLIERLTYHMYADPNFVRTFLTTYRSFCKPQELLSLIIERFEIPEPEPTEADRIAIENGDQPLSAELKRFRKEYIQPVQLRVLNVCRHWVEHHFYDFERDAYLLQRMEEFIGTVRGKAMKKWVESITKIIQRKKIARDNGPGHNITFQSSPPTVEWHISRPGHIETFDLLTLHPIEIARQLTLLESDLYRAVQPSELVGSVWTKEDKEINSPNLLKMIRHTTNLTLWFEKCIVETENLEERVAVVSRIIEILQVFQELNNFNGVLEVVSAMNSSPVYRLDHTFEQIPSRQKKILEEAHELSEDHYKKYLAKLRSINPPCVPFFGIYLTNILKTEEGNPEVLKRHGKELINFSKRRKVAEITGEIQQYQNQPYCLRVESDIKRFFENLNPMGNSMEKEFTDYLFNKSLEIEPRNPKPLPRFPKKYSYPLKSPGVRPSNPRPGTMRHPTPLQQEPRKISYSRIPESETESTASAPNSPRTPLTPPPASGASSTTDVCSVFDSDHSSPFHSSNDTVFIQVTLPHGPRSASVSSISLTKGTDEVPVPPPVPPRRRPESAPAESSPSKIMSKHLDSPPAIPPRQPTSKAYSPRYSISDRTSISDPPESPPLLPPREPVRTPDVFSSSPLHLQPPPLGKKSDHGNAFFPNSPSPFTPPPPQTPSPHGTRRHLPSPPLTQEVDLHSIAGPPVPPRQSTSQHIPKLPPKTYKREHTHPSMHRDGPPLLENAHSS
As to the kind of experiment: biochemical.

[1] abbreviates: substrate midazolam, read-out: Inhibitory activity on drug-metabolizing enzymes (IC50, µM) CYP3A4-M.
Where [2] appears, read: substrate testosterone, read-out: Inhibitory activity on drug-metabolizing enzymes (IC50, µM) CYP3A4-T.

Read-outs that look alike come from different tables or passages of the source.

T1 sequence (P08684 whole entry): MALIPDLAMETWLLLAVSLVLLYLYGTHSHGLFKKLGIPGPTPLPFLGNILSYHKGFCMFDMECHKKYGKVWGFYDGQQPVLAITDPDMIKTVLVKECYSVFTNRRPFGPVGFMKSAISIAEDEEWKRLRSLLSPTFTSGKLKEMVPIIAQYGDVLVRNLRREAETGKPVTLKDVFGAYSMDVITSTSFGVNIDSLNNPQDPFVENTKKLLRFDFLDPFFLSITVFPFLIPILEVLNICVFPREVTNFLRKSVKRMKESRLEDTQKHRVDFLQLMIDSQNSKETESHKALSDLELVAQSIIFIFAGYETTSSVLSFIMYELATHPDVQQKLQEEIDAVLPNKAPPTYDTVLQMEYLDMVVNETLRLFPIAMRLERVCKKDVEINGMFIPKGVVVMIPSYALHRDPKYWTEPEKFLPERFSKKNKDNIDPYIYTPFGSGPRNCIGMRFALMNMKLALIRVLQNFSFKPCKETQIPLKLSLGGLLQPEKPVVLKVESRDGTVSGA

What is called IC50 is the concentration that gives 50% inhibition. `C[C@@H](Nc1nnc(N2CCN(C)CC2)c2cc(=O)n(N3CCOCC3)cc12)c1cccc(C(F)F)c1F` [Example 110, (R)-4-((1-(3-(difluoromethyl)-2-fluorophenyl)ethyl)amino)-1-(4-methylpiperazin-1-yl)-6-morpholinopyrido[3 ,4-d]pyridazin-7(6H)-one]: the IC50 on CYP3A4 (setting [1]) is above 10 µM; at CYP3A4 (setting [2]), above 10 µM; against SOS1, 0.0033 µM.

Take `CNc1nnc(N[C@H](C)c2cccc(C(F)(F)F)c2C)c2cn(C3(C)CC3)c(=O)cc12` [Example 73, (R)-4-((1-(2-methyl-3-(trifluoromethyl)phenyl)ethyl)amino)-1-(methylamino)-6-(1-methylcyclopropyl) pyrido[3,4-d]pyridazin-7(6H)-one]: the results for the IC50 at CYP3A4 (setting [1]), on CYP3A4 (setting [2]) and against SOS1 were above 10 µM, above 10 µM and 0.0044 µM, respectively.
